Key:
Format in all cases: in vivo
[1] = tested on: post-menopausal women; assay: Menopause Rating Scale (MRS), total MRS score; set-up: key: 0 = asymptomatic, 44 = highest degree of complaints
Excerpt: As used herein, the terms “Quality of Life” (and the abbreviation “QoL”) refers to a parameter which can be assessed, for example, by using questionnaires, such as, by way of example and not limitation, the “Menopause Rating Scale” questionnaire (Heinemann et al., 2003, “International versions of the Menopause Rating Scale (MRS)” Health Qual Life Outcomes 1: 28; Heinemann et al., 2004, “The Menopause Rating Scale (MRS) scale: A methodological review”. Health Qual Life Outcomes 2: 45; Heinemann et al., 2004, “The Menopause Rating Scale (MRS) as outcome measure for hormone treatment? A validation study”. Health Qual Life Outcomes 2:67; as further detailed below in Example 1 Section C.) or the MENQOL questionnaire (The Menopause-specific Quality of Life (MENQOL) questionnaire, Hilditch et al.; Maturitas 1996; A menopause-specific quality of life questionnaire: development and psychometric properties; 24(3); p. 161-175).
The Menopause Rating Scale (MRS) is a health-related quality of life scale allowing the measure of severity of age-/menopause-related complaints by rating a profile of symptoms (Heinemann et al., 2003, “International versions of the Menopause Rating Scale (MRS)” Health Qual Life Outcomes 1: 28; Heinemann et al., 2004, “The Menopause Rating Scale (MRS) scale: A methodological review”. Health Qual Life Outcomes 2: 45; Heinemann et al., 2004, “The Menopause Rating Scale (MRS) as outcome measure for hormone treatment? A validation study”. Health Qual Life Outcomes 2:67).
The score increases point by point with increasing severity of subjectively perceived complaints in each one of 11 items (severity expressed in 0 to 4 points in each item). By checking these 5 possible boxes of “severity” for each of the items in the questionnaire, the respondent provides their personal perception. The total MRS score ranges between 0 (asymptomatic) to 44 (highest degree of complaints). The minimal/maximal scores vary between three dimensions depending on the number of complaints allocated to the respective dimension of symptoms (Heinemann et al., 2003, Health Qual Life Outcomes 1: 28): • 1. psychological symptoms: 0 to 16 scoring points (4 symptoms: depressed, irritable, anxious, exhausted); • 2. somato-vegetative symptoms: 0 to 16 points (4 symptoms: sweating/flush, cardiac complaints, sleeping disorders, joint & muscle complaints); • 3. urogenital symptoms: 0 to 12 points (3 symptoms: sexual problems, urinary complaints, vaginal dryness).

[2] = tested on: post-menopausal women; assay: Number of patients with biopsies (endometrial biopsy)
Protocol: If during the course of the trial, a double layer endometrial thickness ≥15 mm was detected on TVUS and/or abnormal uterine bleeding (in the judgement of the gynecologist in light of the oestrogen therapy) was reported by a non-hysterectomised person, they underwent an endometrial biopsy and was treated with progestin (10 mg dydrogesterone) QD until end of Week 11 in a sequential way (i.e., a 14 day progestin treatment period followed by a 14 day progestin treatment pause) in addition to the E4/placebo treatment. […] If an abnormal uterine bleeding occurred again after a first normal endometrial biopsy, a thorough gynaecological examination and a TVUS were performed. If necessary in the judgment of the gynecologist, a second endometrial biopsy was performed. After the E4/Placebo treatment period, all non-hysterectomised subjects (including those having received the progestin previously) received progestin therapy for 14 days with 10 mg dydrogesterone QD.
1. Number of patients with biopsies

[3] = tested on: post-menopausal women; assay: Adverse Events (AEs, TEAEs)
Excerpt: This is confirmed by the following statistical analysis. Using a Poisson regression model with a random effect for the patient and treatment group as a covariate to model the count of TEAEs in the different treatment groups, it can be shown that there is no statistical difference between the treatment groups (p value of 0.099). Second, a chi-square test was used to assess if the prevalence of patients reporting TEAEs in each treatment group was similar. No statistical difference was found between the treatment groups (p value of 0.575).

[4] = tested on: post-menopausal women; assay: Patients leaving the study
Excerpt: 3. Patients leaving the study

Number of patients with biopsies ([2]; 2.5 mg): 4
Number of patients with biopsies ([2]; 5 mg): 5
Number of patients with biopsies ([2]; 10 mg): 11
Number of patients with biopsies ([2]; 15 mg): 9
Requirements for biopsies compared with the 10 mg per day group ([2]; 15 mg per day group): less requirements for biopsies
Number of patients leaving the study ([4]; 2.5 mg): 9
Number of patients leaving the study ([4]; 5 mg): 11
Number of patients leaving the study ([4]; 10 mg): 15
Number of patients leaving the study ([4]; 15 mg): 8
SMILES: C[C@]12CC[C@@H]3c4ccc(O)cc4CC[C@H]3[C@@H]1[C@@H](O)[C@@H](O)[C@@H]2O [E4, 1,3,5 (10)-estratrien-3,15alpha,16alpha,17beta-tetrol]
Total MRS Score, Mean ([1]; 2.5 mg, Baseline): 16.5
Total MRS Score, Mean ([1]; 2.5 mg, Week 12): 9.5
Total MRS Score, Mean ([1]; 2.5 mg, week 4): 10.3
Total MRS Score, Mean ([1]; 5 mg, Baseline): 16.5
Total MRS Score, Mean ([1]; 5 mg, Week 12): 11.0
Total MRS Score, Mean ([1]; 5 mg, week 4): 10.5
Total MRS Score, Mean ([1]; 10 mg, Baseline): 17.6
Total MRS Score, Mean ([1]; 10 mg, Week 12): 9.7
Total MRS Score, Mean ([1]; 10 mg, week 4): 11.7
Total MRS Score, Mean ([1]; 15 mg, Baseline): 16.4
Total MRS Score, Mean ([1]; 15 mg, Week 12): 8.1
Total MRS Score, Mean ([1]; 15 mg, week 4): 8.7
Count of Treatment Emergent AEs (TEAEs) ([3]; 2.5 mg): 61
Percentage of patients with TEAE leading to Study Discontinuation ([3]; 2.5 mg): 1.9%
Percentage of patients with severe TEAE ([3]; 2.5 mg): 7.7%
Count of Treatment Emergent AEs (TEAEs) ([3]; 5 mg): 63
Percentage of patients with TEAE leading to Study Discontinuation ([3]; 5 mg): 6.4%
Percentage of patients with severe TEAE ([3]; 5 mg): 10.6%
Count of Treatment Emergent AEs (TEAEs) ([3]; 10 mg): 95
Percentage of patients with TEAE leading to Study Discontinuation ([3]; 10 mg): 5.6%
Percentage of patients with severe TEAE ([3]; 10 mg): 7.4%
Average AEs per patient, in patients who had AEs ([3]; 10 mg group): 3.2
Count of Treatment Emergent AEs (TEAEs) ([3]; 15 mg): 82
Percentage of patients with TEAE leading to Study Discontinuation ([3]; 15 mg): 4.1%
Percentage of patients with severe TEAE ([3]; 15 mg): 6.1%
Average AEs per patient, in patients who had AEs ([3]; 15 mg group): 2.6
TEAEs compared with the 10 mg group ([3]; 15 mg group): less TEAEs than patients in the 10 mg group

Source: US11484539B2, “Compounds and their uses for alleviating menopause-associated symptoms” (Estetra SPRL, priority 2018, dated 2022)
